{"source": "patent US20090270508A1", "about": "“GluR2 receptor modulators” (priority 2007, published 2009)", "key": {"GluR21 receptors": {"target": "GluR21 receptors (Rattus norvegicus, UniProt P19491)", "sequence (P19491 22-883 isoform P19491-2 limits assumed)": "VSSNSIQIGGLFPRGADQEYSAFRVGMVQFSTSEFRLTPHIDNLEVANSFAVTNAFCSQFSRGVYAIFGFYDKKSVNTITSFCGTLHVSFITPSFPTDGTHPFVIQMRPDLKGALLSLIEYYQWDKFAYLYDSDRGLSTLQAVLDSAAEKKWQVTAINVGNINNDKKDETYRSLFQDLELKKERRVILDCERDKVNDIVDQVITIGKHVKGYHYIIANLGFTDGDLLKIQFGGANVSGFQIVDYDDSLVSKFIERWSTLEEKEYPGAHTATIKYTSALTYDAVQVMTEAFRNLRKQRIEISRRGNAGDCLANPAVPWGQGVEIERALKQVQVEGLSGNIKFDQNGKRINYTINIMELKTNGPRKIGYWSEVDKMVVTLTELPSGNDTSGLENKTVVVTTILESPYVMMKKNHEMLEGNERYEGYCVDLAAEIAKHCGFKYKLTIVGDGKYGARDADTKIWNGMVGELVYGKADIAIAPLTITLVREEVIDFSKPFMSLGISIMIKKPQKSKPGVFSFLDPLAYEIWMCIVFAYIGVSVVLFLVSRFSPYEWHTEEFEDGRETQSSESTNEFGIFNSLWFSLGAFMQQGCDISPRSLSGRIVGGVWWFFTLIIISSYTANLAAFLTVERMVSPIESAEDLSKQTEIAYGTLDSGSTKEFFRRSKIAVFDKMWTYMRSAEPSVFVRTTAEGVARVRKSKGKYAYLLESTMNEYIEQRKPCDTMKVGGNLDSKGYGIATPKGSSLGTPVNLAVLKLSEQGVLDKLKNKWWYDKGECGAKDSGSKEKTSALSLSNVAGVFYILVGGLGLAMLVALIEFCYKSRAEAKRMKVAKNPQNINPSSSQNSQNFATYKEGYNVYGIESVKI", "assay": "Whole-cell recording, potentiation of steady-state glutamate-induced currents", "format": "cell-based", "details": "whole-cell mode (−60 mV), 1 mM glutamate", "experimental": "FIG. 18. (A) Potentiation of steady-state glutamate-induced currents for GluR2; receptors and (B) % current potentiation bar graph.\nPotentiation of steady-state glutamate-induced currents for GluR21 receptors by N,N′-(2S,2′S)-2,2′-(biphenyl-4,4′-diyl)bis(2-fluoropropane-2,1-diyl)dipropane-2-sulfonamide).\nThe recordings are in whole-cell mode (−60 mV) and show inward currents elicited by 1 mM glutamate in the presence of various concentrations of N,N′-(2S,2′S)-2,2′-(biphenyl-4,4′-diyl)bis(2-fluoropropane-2,1-diyl)dipropane-2-sulfonamide)."}, "GluR2 receptor": {"target": "T1, GluR2 receptor (Rattus norvegicus, UniProt P19491)", "T1 construct": "expressed in transfected cells; host or cells: Xenopus laevis oocytes", "T1 sequence (P19491 22-883)": "as the sequence (P19491 22-883 isoform P19491-2 limits assumed) above, with T744N, P745A, S754N, V758L, A775S, K776G, D777G, S778G, G779D counted along it", "assay": "Electrophysiologic studies in GluR2 expressing oocytes (I/Imax versus concentration)", "format": "cell-based", "details": "cells expressing the GluR2 receptor, FIG. 16A-D", "experimental": "FIG. 16A-E. Electrophysiologic studies comparing N,N′-(2R,2′R)-2,2′-(biphenyl-4,4′-diyl)bis(propane-2,1-diyl)dipropane-2-sulfonamide) with LY451646. A. Microamperes of current over various periods of time in a GluR2 expressing oocyte (Xenopus laevis oocyte with microinjected rat GluR2 receptor-encoding mRNA), exposed to various concentrations (0.001 μM, 0.01 μM, 0.1 μM and 1 μM) of N,N′-(2R,2′R)-2,2′-(biphenyl-4,4′-diyl)bis(propane-2,1-diyl)dipropane-2-sulfonamide). B. Microamperes of current over various periods of time in a GluR2 expressing oocyte exposed to various concentrations (0.001 μM, 0.01 μM, 0.1 μM, 1 μM and 10 μM) of LY451646. C. In an oocyte expressing GluR2, ratio of current/maximal current (I/Imax) versus concentration of N,N′-(2R,2′R)-2,2′-(biphenyl-4,4′-diyl)bis(propane-2,1-diyl)dipropane-2-sulfonamide). D. In an oocyte expressing GluR2, ratio of current/maximal current (I/Imax) versus concentration of LY451646. E. N,N′-(2R,2′R)-2,2′-(biphenyl-4,4′-diyl)bis(propane-2,1-diyl)dipropane-2-sulfonamide)."}, "Delta ATD GluR2": {"tested_on": "Delta ATD GluR2", "assay": "Two electrode voltage clamp (TEVC) recording of glutamate currents in oocytes", "format": "cell-based", "details": "glutamate plus compound versus glutamate alone, FIG. 3", "text": "FIG. 3. LY451646 potentiates glutamate currents from Delta ATD GluR2 as measured by TEVC in oocytes. The top tracing represents application of glutamate alone, the bottom tracing glutamate plus LY451646.\n(§1) LY451646 is an […] of GluR2. […] The top tracing represents application of glutamate alone, the bottom tracing glutamate plus LY451646. […] In the absence of LY451646, the amount of dimerized GluR2 barely rises above baseline (FIG. 4A). With the addition of LY451646, dimers overtake monomers (FIG. 4B)."}, "GluR2 S1S2": {"target": "GluR2 S1S2 (Rattus norvegicus, UniProt P19491, DEL528-650/N775S/S652T/V651G)", "sequence (P19491 with tags, fused parts or gaps DEL528-650/V651G/S652T/N775S)": "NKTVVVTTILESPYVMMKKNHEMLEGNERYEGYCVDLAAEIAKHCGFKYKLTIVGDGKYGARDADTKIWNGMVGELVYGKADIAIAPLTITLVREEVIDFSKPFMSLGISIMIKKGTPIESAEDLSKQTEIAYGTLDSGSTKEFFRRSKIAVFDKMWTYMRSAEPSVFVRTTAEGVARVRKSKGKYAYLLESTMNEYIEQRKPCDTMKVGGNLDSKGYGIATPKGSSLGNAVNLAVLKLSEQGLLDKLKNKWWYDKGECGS", "assay": "Dimerization of GluR2 S1S2", "details": "FIG. 4A-B", "text": "(A) GluR2 alone; (B) GluR2S1S2 in the presence of LY451646.\nas §1"}, "[1]": {"tested_on": "hippocampal cell proliferation", "details": "rats, Bai et al., 2003; cited from earlier work"}, "despair": {"tested_on": "despair", "details": "Bai et al., 2001; cited from earlier work"}, "[2]": {"target": "GluR2 Flip splice variant (Homo sapiens, UniProt P42262)", "sequence (P42262 22-883 isoform P42262-2 limits assumed)": "as the sequence (P19491 22-883 isoform P19491-2 limits assumed) above, with T170M, A270T, G743R, P831A counted along it", "details": "by decreasing desensitization, Quirk and Nisenbaum, 2003; cited from earlier work"}, "AMPA": {"tested_on": "AMPA", "details": "rat, glucose utilization and c-fos expression, Fowler et al., 2004; cited from earlier work"}, "[3]": {"tested_on": "rat model of Parkinson's disease", "details": "O'Neil et al., 2004; cited from earlier work"}, "locomotor activity": {"tested_on": "locomotor activity", "assay": "Amphetamine-induced locomotor activity in activity chambers", "format": "in vivo", "details": "mice, 1 mg/kg and 3 mg/kg i.p.", "experimental": "FIG. 17. Effect of N,N′-(2R,2′R)-2,2′-(biphenyl-4,4′-diyl)bis(propane-2,1-diyl)dipropane-2-sulfonamide) on locomotor activity in the context of various doses of amphetamine.\nMice (male, 8 weeks of age; 129S6/SvEv from Taconic) were housed in groups of five for one week. Animals were injected (i.p.) with either vehicle (diluent:saline at a ratio of 3:50 v/v), or one of two doses of GR341 (1 mg/kg and 3 mg/kg). After 15 minutes, animals were injected (i.p.) either with saline or Amphetamine at 3 mg/kg. Mice were held individually without food or water for an additional 15 minutes and then placed in Plexiglas activity chambers (model ENV-520; Med Associates, St. Albans, Vt.) (43.2 cm long×43.2 cm wide×30.5 cm high) to assess locomotor activity. Mice were placed into the center of the open field, and activity was recorded for 30 minutes with subtotals for 5-minute increments. Testing was performed in darkness to minimize anxiety."}}}
{"smiles": "CC(C)S(=O)(=O)NC[C@@](C)(F)c1ccc(-c2ccc([C@](C)(F)CNS(=O)(=O)C(C)C)cc2)cc1", "note": "[N,N′-(2S,2′S)-2,2′-(biphenyl-4,4′-diyl)bis(2-fluoropropane-2,1-diyl)dipropane-2-sulfonamide)]", "values": [{"measurement": "saturating concentration", "setting": "GluR21 receptors", "result": 200, "unit": "nM"}, {"measurement": "effect on glutamate receptor currents", "setting": "GluR21 receptors; FIG. 18", "result": "potentiates glutamate receptor currents"}, {"measurement": "EC50", "setting": "GluR21 receptors; FIG. 18B, approximately half saturating concentration", "result": "~0.05", "unit": "µM"}]}
{"smiles": "CC(C)S(=O)(=O)NC[C@H](C)c1ccc(-c2ccc(C#N)cc2)cc1", "note": "[LY451646]", "values": [{"measurement": "EC50", "setting": "GluR2 receptor", "result": "0.13 ± 0.016", "unit": "µM"}, {"measurement": "effect on glutamate currents", "setting": "Delta ATD GluR2", "result": "potentiate glutamate currents"}, {"measurement": "dimerization of GluR2 S1S2", "setting": "GluR2 S1S2", "result": "promotes dimerization"}, {"measurement": "hippocampal cell proliferation", "setting": "[1]", "result": "increase hippocampal cell proliferation"}, {"measurement": "\"despair\" in the FST and TST", "setting": "despair", "result": "reduce “despair”"}]}
{"smiles": "CC(CNS(=O)(=O)C(C)C)c1ccc(-c2ccc(C#N)cc2)cc1", "note": "(centres unmarked) [LY404187, R,S—N-2-(4-(4-Cyanophenyl)phenyl)propyl 2-propanesulfonamide]", "values": [{"measurement": "receptor's response to glutamate", "setting": "[2]", "result": "potentiate the receptor's response to glutamate"}, {"measurement": "glutamate dependent AMPA stimulation of the brain", "setting": "AMPA", "result": "increases glutamate dependent AMPA stimulation"}, {"measurement": "neurotrophic effect", "setting": "[3]", "result": "exhibit a neurotrophic effect"}]}
{"smiles": "CC(C)S(=O)(=O)NC[C@H](C)c1ccc(-c2ccc([C@@H](C)CNS(=O)(=O)C(C)C)cc2)cc1", "note": "[GR341]", "values": [{"measurement": "EC50", "setting": "GluR2 receptor", "result": "0.0127 ± 0.0006", "unit": "µM"}, {"measurement": "effect on amphetamine-induced locomotor activity", "setting": "locomotor activity; amphetamine 3 mg/kg i.p., 30 minutes, FIG. 17", "result": "inhibited amphetamine-induced locomotor activity"}, {"measurement": "effect of the compound alone on locomotor activity", "setting": "locomotor activity; saline instead of amphetamine", "result": "no significant effect"}]}
